# Laboratory results from US20140221499A1, “NOVEL RODENT CONTROL AGENTS AND USES THEREOF” (priority 2011, published 2014).
# Assays:
# [1] = tested on: corticosterone levels in rat plasma; experiment: Plasma corticosterone assay after odor exposure; type: in vivo; details: 30 min exposure, 10% amine or 2% TMT, 1 ml, ±SEM
# Procedure: Avoidance to 2-phenylethylamine in rats was associated with acute changes in circulating levels of the stress hormone corticosterone.
# Plasma corticosterone assay. […] Corticosterone levels were measured in duplicate using a competitive radioactive binding assay as described previously (Pryce C R, Bettschen D, Bahr N I, & Feldon J (2001) Comparison of the effects of infant handling, isolation, and nonhandling on acoustic startle, prepulse inhibition, locomotion, and HPA activity in the adult rat. Behav Neurosci 115(1):71-83).
# mTAAR7f = biological target: T1, mTAAR7f (Mus musculus, UniProt Q5QD08); experiment: TAAR reporter gene assay, mTAAR7f; type: cell-based; design: Full Taar coding regions were cloned into pcDNA3.1-(Invitrogen); Rho tag (first 20 aa of bovine rhodopsin + linker); expressed in transfected cells; host or cells: HEK293
# T1 sequence (Q5QD08 1-358): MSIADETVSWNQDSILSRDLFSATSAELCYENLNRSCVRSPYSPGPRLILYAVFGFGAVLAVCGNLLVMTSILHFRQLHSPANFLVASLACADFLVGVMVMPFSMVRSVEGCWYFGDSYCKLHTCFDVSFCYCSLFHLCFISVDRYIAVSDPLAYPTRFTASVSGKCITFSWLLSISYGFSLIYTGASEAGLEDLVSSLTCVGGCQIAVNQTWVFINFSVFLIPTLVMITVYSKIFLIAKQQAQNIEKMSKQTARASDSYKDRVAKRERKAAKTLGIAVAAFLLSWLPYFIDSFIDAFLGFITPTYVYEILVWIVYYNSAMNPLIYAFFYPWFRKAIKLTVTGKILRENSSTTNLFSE
# Description: Here, we set out to identify agonists for additional mouse and rat TAARs. We examined odor response profiles using a previously established reporter gene assay based on cAMP-dependent odor transduction in olfactory sensory neurons (40, 42). Briefly, TAAR plasmids were transfected into HEK293 cells along with a cAMP-dependent reporter gene encoding secreted alkaline phosphatase (CRE-SEAP). TAARs were expressed both in unmodified form and as fusion proteins with an N-terminal sequence of bovine rhodopsin (‘Rho tag’) that promotes cell surface expression of some chemosensory receptors (35). Transfected cells were incubated with test chemicals, and phosphatase activity was quantified with a fluorescent substrate as a reporter for TAAR activation. In initial experiments, we tested 38 different odorant mixtures containing 244 structurally diverse test chemicals (2-5 μM) for the ability to activate each mTAAR. […]
# (§1) TAAR functional assays. […] Fluorescence was measured on an EnVision plate reader (Perkin Elmer) and SEAP activity graphed as relative fluorescence of a phosphatase substrate.
# TAAR functional assays. […] SEAP activity is measured as fluorescence resulting from dephosphorylation of a substrate, 4-methylumbelliferyl phosphate. Fluorescence values were obtained using an EnVision plate reader (Perkin Elmer) and are reported directly without normalization. […]
# rTAAR7b = biological target: T2, rTAAR7b (Rattus norvegicus, UniProt Q923X8); experiment: TAAR reporter gene assay, rTAAR7b; type: cell-based; design: Full Taar coding regions were cloned into pcDNA3.1-(Invitrogen); expressed in transfected cells; host or cells: HEK293
# T2 sequence (Q923X8 1-358): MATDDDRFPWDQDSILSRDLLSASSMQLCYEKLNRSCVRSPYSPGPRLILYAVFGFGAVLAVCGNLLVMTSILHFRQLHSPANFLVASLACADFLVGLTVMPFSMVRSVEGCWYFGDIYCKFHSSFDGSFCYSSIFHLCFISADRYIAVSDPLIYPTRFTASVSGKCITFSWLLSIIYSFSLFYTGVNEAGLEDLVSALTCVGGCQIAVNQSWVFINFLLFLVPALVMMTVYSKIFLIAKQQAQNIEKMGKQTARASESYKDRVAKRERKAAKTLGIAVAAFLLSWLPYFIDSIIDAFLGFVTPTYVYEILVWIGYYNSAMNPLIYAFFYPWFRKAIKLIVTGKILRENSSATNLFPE
# Description: Here, we set out to identify agonists for additional mouse and rat TAARs. We examined odor response profiles using a previously established reporter gene assay based on cAMP-dependent odor transduction in olfactory sensory neurons (40, 42). Briefly, TAAR plasmids were transfected into HEK293 cells along with a cAMP-dependent reporter gene encoding secreted alkaline phosphatase (CRE-SEAP). TAARs were expressed both in unmodified form and as fusion proteins with an N-terminal sequence of bovine rhodopsin (‘Rho tag’) that promotes cell surface expression of some chemosensory receptors (35). Transfected cells were incubated with test chemicals, and phosphatase activity was quantified with a fluorescent substrate as a reporter for TAAR activation. In initial experiments, we tested 38 different odorant mixtures containing 244 structurally diverse test chemicals (2-5 μM) for the ability to activate each mTAAR. Subsequently, we tested 73 amines that included known mTAAR agonists and related chemicals for the ability to activate each rTAAR.
# as §1
smiles,measurement,setting,value
NCCc1ccccc1 [2-phenylethylamine],plasma levels of corticosterone,[1],194 ± 18 ng/mL
"CN(C)CCc1ccccc1 [ligand 6, N,N-dimethyl-2-phenylethylamine]",mTAAR7f activation,mTAAR7f,not
same,rTAAR7b activation,rTAAR7b,not
"CN(C)C1CCCCC1 [ligand 10, N,N-dimethylcyclohexylamine]",mTAAR7f activation,mTAAR7f,activated
same,rTAAR7b activation,rTAAR7b,activated
